Data on 19 molecules can be found in patent publication US12492422B2, “Ex vivo protease activity detection for disease detection/diagnostic, staging, monitoring and treatment” (Sunbird Bio, Inc., priority 2020, dated 2025).

Square brackets hold non-standard residues; d marks the D form. Primed or numbered codes have the meaning given here. Ends that are not written are not given here. CPQ2″ = quencher on the Lys side chain; FAM = fluorescent reporter; CPQ2(4) = quencher on Lys; PEG2″ = PEG2 spacer; CPQ2 = quencher

Assay [1] relates to COVID-related proteases. The assay can be described thus: Ex vivo probe cleavage in K2EDTA and Lithium Heparin plasma, COVID vs healthy. The assay is classed as biochemical. The note with it: K2EDTA and LiHeparin plasma cohorts.
For assay [2], the target named is furin (Homo sapiens, UniProt P09958). The note with it: solid-state fluorescence of precipitates after reaction of HPQF with furin; cited from earlier work.
Chain of furin (P09958 108-794, species assumed): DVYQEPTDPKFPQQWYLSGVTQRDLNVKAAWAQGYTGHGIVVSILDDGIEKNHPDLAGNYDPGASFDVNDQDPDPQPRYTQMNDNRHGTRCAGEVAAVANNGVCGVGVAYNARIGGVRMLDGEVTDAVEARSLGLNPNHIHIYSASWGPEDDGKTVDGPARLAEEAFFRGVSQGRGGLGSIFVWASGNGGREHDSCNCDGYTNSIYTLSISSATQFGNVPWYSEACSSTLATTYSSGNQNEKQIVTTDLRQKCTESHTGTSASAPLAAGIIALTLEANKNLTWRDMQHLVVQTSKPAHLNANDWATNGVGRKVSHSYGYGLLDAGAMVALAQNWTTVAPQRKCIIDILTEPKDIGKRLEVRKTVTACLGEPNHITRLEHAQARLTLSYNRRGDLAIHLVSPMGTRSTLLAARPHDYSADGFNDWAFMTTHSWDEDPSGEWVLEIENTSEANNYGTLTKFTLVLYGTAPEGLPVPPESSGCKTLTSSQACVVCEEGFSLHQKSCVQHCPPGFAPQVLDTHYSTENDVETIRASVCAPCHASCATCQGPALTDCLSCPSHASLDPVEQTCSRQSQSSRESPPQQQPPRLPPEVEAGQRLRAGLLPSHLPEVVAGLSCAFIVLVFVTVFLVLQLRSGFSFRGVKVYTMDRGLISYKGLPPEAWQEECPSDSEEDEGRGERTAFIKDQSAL
Assay [3] relates to caspase activity. The assay can be described thus: Ex vivo probe cleavage in plasma of Jo2 fulminant hepatitis model. The assay is classed as biochemical, mouse. The note with it: plasma 3 hours after Jo2 injection. How it is done: Fulminant hepatitis is induced after injection intraperitoneal of monoclonal antibody anti-CD95 (Jo2, BD biosciences, 4 ug/animal), and mouse plasma samples were collected 3 hours after Jo2 injection.
The comparison with mass spectrometry data also aligns and confirms high concordance with the ex vivo approach, which is reassuring to confirm the existence of a biologically relevant signal.

Assay [4] relates to carboxylesterase 1, phospholipase A2 and lipoprotein lipase. The assay can be described thus: Resorufin oleate substrate with recombinant enzymes spiked in human plasma. It counts as biochemical.
For assay [5], the system named is proteases cleaving Probe #102 in plasma (cathepsin L). Briefly: Inhibitor profiling of Probe #102 cleavage in NASH and healthy plasma. It counts as biochemical, mice. The note with it: for effect of inhibitor on Probe #102 signal: NASH or healthy samples. How it is done:
For this experiment, all plasma samples were prepared individually and diluted 1/10e in PBS with inhibitor added directly to the samples. Inhibitor was prepared at 15× concentration to final. Substrates were diluted in DI water at 18 uM, such that the final concentration on the plate would be 6 uM. All samples were prepared such that their last dilution on the plate would not affect the desired final concentration. 10 ul of each individual sample was pipetted into their corresponding wells, and the plate was then spun down in the centrifuge at 1500 RPM for 30 seconds to coat the bottom of each well with the sample. 5 ul of the 18 uM substrate solution was pipetted into each well being used on a 384 well plate, and then the plate was spun down in the centrifuge at 1500 rpm for 30 seconds. The plate was placed immediately in the plate reader at 37° C. for a 30-minute-long fluorescence kinetic read at 485/535 extended gain.
To assess the proteolytic cleavage pattern of Probe #102, samples were tested using a pool of broad inhibitors for serine, cysteine, threonine, MMP and aspartic protease family members (broad inhibitor) to assess general protease activity, AEBSF for serine proteases, E64 for cysteine proteases, CTSi for broad cathepsin inhibition of cathepsins L, S, K and B, or specific inhibitors for cathepsin K (L00625), for cathepsin L (SID) or cathepsin B (CA074).

Assay [6] deals with cathepsin and/or MMP protease activities. The assay can be described thus: Ex vivo probe cleavage in plasma: healthy, NASH regression, NASH progression. The conditions noted are these: K2EDTA plasma at 20 weeks. It counts as biochemical, mice. The source says: Plasma samples were collected from all animals at 20 weeks.
The probes showing the most differentiation in NASH were linked to cathepsin and/or MMP protease activities.

Assay [7] addresses T1, Granzyme B (Homo sapiens, UniProt P10144).
T1 construct: from tissue; host or cells: swab samples
The assay can be described thus: Inhibition experiments on Probe #647 signal in swabs (Granzyme B, caspases). It counts as biochemical. The conditions noted are these: healthy vs COVID samples.

Assay [8] has as its system COVID-related proteases. The assay can be described thus: Ex vivo probe cleavage in COVID positive and negative swab samples. It counts as biochemical.

T1 sequence (P10144 21-247): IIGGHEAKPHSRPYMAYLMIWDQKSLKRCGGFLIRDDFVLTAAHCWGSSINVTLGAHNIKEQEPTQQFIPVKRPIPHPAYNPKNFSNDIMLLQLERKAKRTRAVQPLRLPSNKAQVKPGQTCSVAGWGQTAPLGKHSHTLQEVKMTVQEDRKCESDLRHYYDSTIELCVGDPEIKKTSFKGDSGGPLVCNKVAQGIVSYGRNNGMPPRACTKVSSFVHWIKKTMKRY

On to “Probe #84: Furin substrate (GRVKRGLAGK(CPQ2); also: 5-FAM, position not given here, PEG2, position not given here)”, for which the “differential cleavage between COVID and healthy samples” value in assay [1] was “demonstrated contrast in both sets”.

As to `O=c1[nH]c(-c2cc(Cl)ccc2O)nc2ccc(Cl)cc12` [Cl-HPQ], the fluorescence enhancement entry in assay [2] was “more than 60 fold”.

Consider “Probe #409: the SARS CoV2 coronavirus substrate (GTSAVLQSGFRKGK(CPQ2); also: 5-FAM, position not given here, PEG2, position not given here)”, for which the “differential cleavage between COVID and healthy samples” value in assay [1] is recorded as “modest contrast in the K2 EDTA samples”.

On to “Probe #12: Caspase centric probe (GDEVDGK; not fully specified; 5-FAM, CPQ2 quencher, PEG2, D-Lys-D-Lys-GC; MOD_RES (7)..(7) Lys modified with a CPQ2 quencher)”, for which, in assay [3], the “contrast in Jo2 hepatitis model” value was “show contrast that is specific and sensitive to the Jo2 model”.

Resorufin oleate: the “suitability as substrate for enzyme detection” value in assay [4] is reported as “promising for detection of broad range of enzymes”.

In the case of `CN1CCN(c2nc(-c3ccc(C(=O)NC4(C(=O)NCC#N)CCCCC4)cc3)cs2)CC1` [Probe L006235], in assay [5], the “effect of inhibitor on Probe #102 signal” value is listed as “did not significantly decrease signal”.

For the molecule “Probe #520: probe of Table 1 (GKPISLISSGK; not fully specified; 5FAM, CPQ2 quencher, PEG2-GC; MOD_RES (11)..(11) Lys modified with a CPQ2 quencher)”, the “differentiation among healthy, regression and NASH samples” value (shortened to “differentiation among healthy”) in assay [6] is given as “can differentiate”.

Consider “Probe #462: MMP8 substrate (GKKAKRNALGK(CPQ2); also: FAM, position not given here, PEG2, position not given here)”, for which the “differential cleavage between COVID and healthy samples” value in assay [1] is on record as “demonstrated contrast in both sets”.

On to “Probe #8: Caspase centric probe (GVDVADGK; not fully specified; 5-FAM, CPQ2 quencher, PEG2, D-Lys-D-Lys-GC; MOD_RES (8)..(8) Lys modified with a CPQ2 quencher)”, for which the “contrast in Jo2 hepatitis model” value in assay [3] was “show contrast that is specific and sensitive to the Jo2 model”.

For the molecule `CC(C)C[C@H](NC(=O)[C@H]1O[C@@H]1C(=O)O)C(=O)NCCCCN=C(N)N` [Probe E64], the “effect of inhibitor on Probe #102 signal” value in assay [5] was “decreased NASH signal significantly”.

For the molecule `CCCC(=O)O` [butyrate], in assay [4], the “suitability as substrate for enzyme detection” value is reported as “promising for detection of broad range of enzymes”.

Take “Probe #647: Caspase centric probe; signal measures Granzyme B activity (GAIEPDSGGK(CPQ2); also: 5FAM, position not given here, PEG2, position not given here, D-Lys-D-Lys-GC-NH2, position not given here)”: the “differentiation among healthy” value in assay [6] is given as “can differentiate”. Besides, the “protease measured by probe signal” value in assay [7] is on record as “measures the activity of protease Granzyme B”. In addition, in assay [8] (adjusted RFU across timepoints), the “active samples among COVID+” value was 7 samples and the “active samples among COVID−” value is 1 sample. Besides, the “differentiation between COVID+ and COVID− samples” value in assay [8] (swab samples in saline) is reported as “key differentiator”. Further, the “contrast in Jo2 hepatitis model” value in assay [3] is “show contrast that is specific and sensitive to the Jo2 model”.

With `CCCNC(=O)[C@H]1O[C@@H]1C(=O)N[C@H](C(=O)N1CCC[C@H]1C(=O)O)[C@@H](C)CC` [CA074], the “effect of inhibitor on Probe #102 signal” value in assay [5] is “did not significantly decrease signal”.

With “Probe #102: a CTSL sensing probe; fluorescent reporter and quencher ({FAM}-GKPILFFRLKGK(CPQ2″)[PEG2″][dK][dK]GC; also: fluorescent reporter and quencher, places not given here)”, in assay [5] (individual cathepsin inhibitors, FIG. 30D-F), the “protease whose activity the probe responds to” value is recorded as “specifically responds to the activity of cathepsin L (CTSL)”. Besides, the “differentiation among healthy” value in assay [6] is listed as “can differentiate”.

“Probe #96: probe of Table 1 ({FAM}-GRPLALWESQGK(CPQ2(4))[PEG2″][dK]GC; not fully specified; printed as (FAM)-GRPLALWESQG-K(CPQ2)-PEG2-k-GC; also: FAM, place not given here, D-Lys-GC, place not given here)”: the “differentiation among healthy” value in assay [6] is given as “can differentiate”.

`NCCc1ccc(S(=O)(=O)F)cc1` [AEBSF]: the “decrease of RFU signal in NASH samples” value in assay [5] (Probe #102 6 uM, NASH plasma diluted in PBS, 30-minute kinetic read at 37° C.) amounted to 65%. For the same molecule, the “decrease of RFU signal in healthy samples” value in assay [5] (Probe #102 6 uM, healthy plasma diluted in PBS, 30-minute kinetic read at 37° C.) is given as 60%.

For the molecule “Probe #428: probe of Table 1 ({FAM}-GDRRKKLTQGK(CPQ2(4))[PEG2″][dK][dK]GC; not fully specified; printed as (FAM)-GDRRKKLTQG-K(CPQ2)-(PEG2)-DLys-DLys-GC; also: FAM, place not given here, D-Lys-D-Lys-GC, place not given here)”, the “differentiation among healthy” value in assay [6] is given as “can differentiate”.

For “Probe #18: Neutrophil elastase substrate (GAAPVGK(CPQ2); also: 5-FAM, position not given here, PEG2, position not given here)”, in assay [1], the “differential cleavage between COVID and healthy samples” value is “demonstrated contrast in both sets”.

With “Probe #492: probe of Table 1; differentiates NASH in mouse plasma ({FAM}-GQRANSIRVTWGK(CPQ2(4))[PEG2″][dK][dK]GC; not fully specified; printed as (FAM)-GQRANSIRVTWG-K(CPQ2)-(PEG2)-DLys-DLys-GC; also: FAM, place not given here, D-Lys-D-Lys-GC, place not given here)”, in assay [6], the “differentiation among healthy” value is on record as “can differentiate”.
